Literature values in patent publication US20070015720A1, “Modulation of endogenous AICAR levels for the treatment of diabetes and obesity” (CytRx Corporation, priority 2005, published 2007).

Key:
[1] = test system: obese Zucker (fa/fa) rats; conditions: long term treatment, high doses
[2] = mice, murine pouch model of inflammation
[3] = low dose, psoriasis patients, day of dosing

Compound | fasting concentrations of glucose and insulin [1] | plasma triglyceride and free fatty acid levels [1] | systolic blood pressure [1] | adipocyte differentiation (adipocytes) | non-insulin stimulated glucose uptake (3T3L1 adipocytes) | increase of AICAR-monophosphate in splenocytes [2] | urinary excretion of aminoimidazole carboxamide (AICA) [3]
NC(=O)c1ncn([C@@H]2O[C@H](CO)[C@@H](O)[C@H]2O)c1N [AICAR, 5-aminoimidazole-4-carboxamide ribonucleoside] | decrease | reduce | decrease | inhibits adipocyte differentiation at an early stage | increase | – | –
CN(Cc1cnc2nc(N)nc(N)c2n1)c1ccc(C(=O)N[C@@H](CCC(=O)O)C(=O)O)cc1 [methotrexate] | – | – | – | – | – | three-fold | statistically significant increase
O=C(O)c1cc(/N=N/c2ccc(S(=O)(=O)Nc3ccccn3)cc2)ccc1O [sulfasalazine] | – | – | – | – | – | three-fold | –
